Here are results for three compounds from US20240173344A1, “USE OF GABAA RECEPTOR AS TARGET IN PREPARATION OR SCREENING OF DRUG FOR LOWERING BLOOD LIPID LEVEL, TREATING OBESITY, AND/OR IMPROVING METABOLISM” (SHANGHAI INSTITUTE OF ENDOCRINE AND METABOLIC DISEASES, priority 2022, published 2024).

“And” between values parts separate entries of the source, which are not always exact repeats. Equal values may be shown once.

This assay concerns obese mouse model. Kind of assay: Intraperitoneal puerarin derivatives in obese mouse model: body weight, blood lipid, jejunal TG. The class given is in vivo, mice. Conditions: for Body weight change percentage, Mean: puerarin derivative-1; for Body weight change percentage: intraperitoneal puerarin derivative-1; for Effect on TG (lipid) absorption in small intestine / Effect on blood lipid level / Effect on body weight of the obese mouse: intraperitoneal injection, result in words; for Blood lipid level / Jejunal TG level: individual obese mice. From the text: In the present disclosure, the mice were fed with a high-fat diet in which a mass percentage of fat was 60% for 12 weeks, and when a body weight reached 35 g or more, animal models of alimentary obesity were successfully constructed. At a formal stage of the experiment (starting on day 0 in FIG. 1A, FIG. 3A, FIG. 6A, and FIG. 7A), the mice were raised in single cages, during which a daily food intake of each mouse model was accurately recorded, the feces was collected before and after drug intervention, and a daily body weight curve was recorded.
A method for determining TG in a sample was as follows: 20 mg to 30 mg of a sample was first weighed, a 5% NP40-containing lysis buffer was added, and a resulting mixture was homogenated and incubated in a metal bath at 95° C. for 5 min, which was repeated twice. A resulting homogenate was cooled to room temperature and then centrifuged at 15,000 rpm for 2 min to 3 min, and a resulting supernatant was pipetted for determination. A Biovision kit was used to determine TG. 2 μl of the supernatant was added to each well, and after a chromogenic reaction was completed, a value of each well was determined by a microplate reader. TG in the small intestinal tissue was quantified through a standard protein concentration; and a total amount of lipids excreted with the feces was calculated based on a measured value of the feces sample and a total mass of the sample at 24 h.

Where [1] appears, read: group mean of 10 mice, puerarin derivative-2 group.
[2] abbreviates: group mean of 8 mice, puerarin derivative-3 group.

Turning to `OCC1OC(c2c(O)ccc3c2OC=C(c2ccc(O)cc2)C3O)C(O)C(O)C1O` (centres unmarked) [Derivative-1], the “Effect on TG (lipid) absorption in small intestine” value (“Effect on TG (lipid) absorption” for short) is “inhibit the TG absorption in small intestine”, the “Effect on blood lipid level” value was “effectively reduce blood lipid level” and the “Effect on body weight of the obese mouse” value is recorded as “significantly reduce the body weight”. Besides, for the setting “Day 0, group mean of 10 mice”, the “Body weight change percentage, Mean” value was found to be 0.00%. Moreover, the “Body weight change percentage” value (Day 0, individual obese mice) is on record as 0.00%. In addition, the “Body weight change percentage, Mean” value (Day 1, group mean of 10 mice) is −1.88%. The “Body weight change percentage” value (Day 1, individual obese mice) is −0.25% and −2.34% and −2.27% and −3.30% and −2.93% and 0.00% and −2.45% and 0.28% and −2.89% and −2.63%. The “Body weight change percentage, Mean” value (Day 2, group mean of 10 mice) was −2.10%. Also, the “Body weight change percentage” value (Day 2, individual obese mice) was −0.74% and −1.86% and −2.56% and −3.79% and −4.32% and −0.26% and −2.20% and 0.00% and −2.62% and −2.63%. Further, for the setting “Day 3, group mean of 10 mice”, the “Body weight change percentage, Mean” value is −2.96%. In addition, the “Body weight change percentage” value (Day 3, individual obese mice) is −1.24% and −3.06% and −2.56% and −4.04% and −4.32% and −1.55% and −2.45% and −1.14% and −4.53% and −4.77%. Further, where the note is “Day 4, group mean of 10 mice”, the “Body weight change percentage, Mean” value is reported as −3.71%. In addition, the “Body weight change percentage” value (Day 4, individual obese mice) was −0.99% and −3.79% and −3.73% and −6.05% and −4.88% and −3.15% and −3.46% and −2.30% and −4.26% and −4.46%. In addition, the “Body weight change percentage, Mean” value (Day 5, group mean of 10 mice) is given as −3.61%. Further, the “Body weight change percentage” value (Day 5, individual obese mice) was −1.74% and −3.55% and −4.33% and −6.05% and −3.48% and −2.08% and −2.95% and −3.79% and −3.70% and −4.46%. In addition, the “Body weight change percentage, Mean” value (Day 6, group mean of 10 mice) is reported as −3.95%. Where the note is “Day 6, individual obese mice”, the “Body weight change percentage” value was −4.08% and −3.06% and −2.56% and −6.31% and −5.17% and −2.35% and −3.21% and −2.60% and −5.09% and −5.08%. Also, the “Body weight change percentage, Mean” value (Day 7, group mean of 10 mice) is on record as −4.08%. Under “Day 7, individual obese mice”, the “Body weight change percentage” value was −3.81% and −2.10% and −5.25% and −6.56% and −6.62% and −2.35% and −2.20% and −3.79% and −4.26% and −3.84%.
Turning to `Cc1ccc(-c2coc3c(C4OC(CO)C(O)C(O)C4O)c(O)ccc3c2=O)cc1` (centres unmarked) [puerarin derivative-2], the “Effect on TG (lipid) absorption” value is on record as “inhibiting the small intestinal lipid absorption”; the “Effect on blood lipid level” value is given as “reducing blood lipid”; the “Effect on body weight of the obese mouse” value was “reducing blood lipid and body weight”. The “Body weight change curve, Mean” value (Day 0, group mean of 10 mice, puerarin derivative-2) is 0.00%. In addition, the “Body weight change curve” value (Day 0, individual obese mice, puerarin derivative-2) is 0.00%. Further, the “Body weight change curve, Mean” value (Day 1, group mean of 10 mice, puerarin derivative-2) is listed as −1.67%. Also, where the note is “Day 1, individual obese mice, puerarin derivative-2”, the “Body weight change curve” value is −2.39% and −0.56% and −1.13% and −2.22% and 0.90% and −2.19% and −0.28% and −2.70% and −2.55% and −3.57%. The “Body weight change curve, Mean” value (Day 2, group mean of 10 mice, puerarin derivative-2) is on record as −2.33%. Where the note is “Day 2, individual obese mice, puerarin derivative-2”, the “Body weight change curve” value is −2.74% and −2.26% and −1.99% and −4.21% and 0.60% and −2.75% and −0.84% and −2.15% and −2.88% and −4.10%. For the same compound, the “Body weight change curve, Mean” value (Day 3, group mean of 10 mice, puerarin derivative-2) was −2.88%. For the same compound, under “Day 3, individual obese mice, puerarin derivative-2”, the “Body weight change curve” value is −2.74% and −3.43% and −3.16% and −4.55% and 0.00% and −2.75% and −1.41% and −3.55% and −2.88% and −4.37%. Moreover, where the note is “Day 4, group mean of 10 mice, puerarin derivative-2”, the “Body weight change curve, Mean” value is recorded as −3.46%. For the setting “Day 4, individual obese mice, puerarin derivative-2”, the “Body weight change curve” value was −2.74% and −3.73% and −3.16% and −3.87% and −0.91% and −3.89% and −1.13% and −4.40% and −4.21% and −6.57%. Moreover, the “Body weight change curve, Mean” value (Day 5, group mean of 10 mice, puerarin derivative-2) was −3.68%. The “Body weight change curve” value (Day 5, individual obese mice, puerarin derivative-2) is −2.74% and −4.03% and −3.76% and −4.21% and −0.61% and −3.89% and −1.99% and −4.11% and −4.89% and −6.57%. Moreover, the “Body weight change curve, Mean” value (Day 6, group mean of 10 mice, puerarin derivative-2) is on record as −3.68%. Where the note is “Day 6, individual obese mice, puerarin derivative-2”, the “Body weight change curve” value was −2.74% and −4.03% and −3.16% and −3.54% and −0.91% and −4.47% and −4.67% and −3.55% and −2.88% and −6.85%. For the same compound, where the note is “Day 7, group mean of 10 mice, puerarin derivative-2”, the “Body weight change curve, Mean” value is −3.98%. The “Body weight change curve” value (Day 7, individual obese mice, puerarin derivative-2) is −3.45% and −2.26% and −2.57% and −3.87% and −2.15% and −5.66% and −4.37% and −2.43% and −5.93% and −7.13%. In addition, under setting [1], the “Blood lipid level, Mean” value is listed as 1.0006 mM and the “Jejunal TG level, Mean” value turned out to be 1.3072 μmol/mg/protein. Also, where the note is “puerarin derivative-2 group”, the Blood lipid level was 1.0874 mM and 1.0496 mM and 0.6903 mM and 0.8792 mM and 0.6729 mM and 1.3428 mM and 0.9551 mM and 1.1631 mM and 1.1347 mM and 1.0307 mM; the “Jejunal TG level” value was 1.7043 μmol/mg/protein and 1.5325 μmol/mg/protein and 1.5551 μmol/mg/protein and 1.3572 μmol/mg/protein and 1.1252 μmol/mg/protein and 1.1433 μmol/mg/protein and 1.3121 μmol/mg/protein and 1.0924 μmol/mg/protein and 1.2506 μmol/mg/protein and 0.9988 μmol/mg/protein.
As for `OCC1OC2c3c(ccc4c3OC=C(c3ccc(O)cc3)C4O)OC2C(O)C1O` (centres unmarked) [puerarin derivative-3], the “Effect on TG (lipid) absorption” value is listed as “inhibiting the small intestinal lipid absorption”; the “Effect on blood lipid level” value is reported as “reducing blood lipid”; the “Effect on body weight of the obese mouse” value was “reducing blood lipid and body weight”. The “Body weight change curve, Mean” value (Day 0, group mean of 8 mice, puerarin derivative-3) is 0.00%. Further, the “Body weight change curve” value (Day 0, individual obese mice, puerarin derivative-3) amounted to 0.00%. The “Body weight change curve, Mean” value (Day 1, group mean of 8 mice, puerarin derivative-3) is on record as −2.37%. Where the note is “Day 1, individual obese mice, puerarin derivative-3”, the “Body weight change curve” value is −3.96% and −2.50% and −1.71% and −2.35% and −2.28% and −0.26% and −2.59% and −3.32%. For the same compound, the “Body weight change curve, Mean” value (Day 2, group mean of 8 mice, puerarin derivative-3) is recorded as −3.16%. For the same compound, the “Body weight change curve” value (Day 2, individual obese mice, puerarin derivative-3) is −5.57% and −1.65% and −3.77% and −2.65% and −4.06% and −0.80% and −2.88% and −3.90%. Besides, where the note is “Day 3, group mean of 8 mice, puerarin derivative-3”, the “Body weight change curve, Mean” value is on record as −3.01%. Also, under “Day 3, individual obese mice, puerarin derivative-3”, the “Body weight change curve” value is −1.49% and −2.50% and −4.68% and −2.65% and −4.36% and −1.34% and −2.88% and −4.19%. The “Body weight change curve, Mean” value (Day 4, group mean of 8 mice, puerarin derivative-3) was −3.76%. Moreover, the “Body weight change curve” value (Day 4, individual obese mice, puerarin derivative-3) was −2.09% and −3.65% and −6.24% and −2.65% and −3.76% and −1.07% and −4.39% and −6.27%. Moreover, under “Day 5, group mean of 8 mice, puerarin derivative-3”, the “Body weight change curve, Mean” value is −4.10%. For the same compound, under “Day 5, individual obese mice, puerarin derivative-3”, the “Body weight change curve” value was −3.02% and −3.65% and −6.24% and −2.65% and −4.06% and −1.88% and −5.00% and −6.27%. The “Body weight change curve, Mean” value (Day 6, group mean of 8 mice, puerarin derivative-3) is given as −4.33%. Besides, the “Body weight change curve” value (Day 6, individual obese mice, puerarin derivative-3) is −3.33% and −5.13% and −6.24% and −2.65% and −3.46% and −4.41% and −2.88% and −6.57%. Besides, the “Body weight change curve, Mean” value (Day 7, group mean of 8 mice, puerarin derivative-3) is listed as −5.42%. In addition, the “Body weight change curve” value (Day 7, individual obese mice, puerarin derivative-3) is −5.24% and −6.65% and −7.51% and −3.26% and −3.76% and −4.13% and −5.93% and −6.88%. In addition, under setting [2], the “Blood lipid level, Mean” value turned out to be 1.2750 mM and the “Jejunal TG level, Mean” value is 1.2900 μmol/mg/protein. For the same compound, for the setting “puerarin derivative-3 group”, the Blood lipid level was 1.62 mM and 1.06 mM (2×) and 1.69 mM and 1.23 mM and 1.07 mM and 1.29 mM and 1.18 mM; the “Jejunal TG level” value is 1.29 μmol/mg/protein and 1.48 μmol/mg/protein (2×) and 1.36 μmol/mg/protein and 1.27 μmol/mg/protein and 1.53 μmol/mg/protein and 1.06 μmol/mg/protein and 0.85 μmol/mg/protein.
